# Source: US6787125B1, “Compound screening method” (priority 1999, dated 2004)
# Counter-ions that a name gives are not always drawn. Like-named read-outs stand apart in the source and are kept apart here.
# Tests used:
# C. elegans = assay type: in vivo
# Text: Nematode worms that are placed in liquid culture will move in such a way that they maintain a more or less even (or homogeneous) distribution throughout the culture. Nematode worms that are defective in movement will precipitate to the bottom in liquid culture.
# Advanced multi-well plate readers are able to detect sub-regions of the wells of multi-well plates. By using these plate readers it is possible to take measurements in selected areas of the surface of the wells of the multi-well plates. If the area of measurement is centralized, so that only the middle of the well is measured, a difference in nematode autofluorescence (fluorescence which occurs in the absence of any external marker molecule) or optical density can be observed in the wells containing nematodes that move normally as compared to wells containing nematodes that are defective for movement. For the wells containing the nematodes that move normally, a low level of autofluorescence or optical density will be observed, whilst a high level of autofluorescence or optical density can be observed in the wells that contain the nematodes that are defective in movement. Optical density is measured using a variation of the platelet aggregation assay, which is well known in the art. Using the MRX revelation device from Dynex (USA), optical density can be measured at multiple points per well, showing the precipitation pattern of the nematodes.
# In an adaptation of the movement assay, autofluorescence or optical density measurements can be taken in two areas of the surface of the well, one measurement in the centre of the well, and on measurement on the edge of the well. Comparing the two measurements gives analogous results as in the case if only the centre of the well is measured but the additional measurement of the edge of the well results in an extra control and somewhat more distinct results.
# C. elegans pharynx = assay: Pharynx pumping assay (calcein-AM), strain not specified: dilution series, insecticides, Tocris library; assay type: in vivo; conditions: for effect on pharynx pumping rate, dose-response curve: concentration range from less than 1 μM up to 100 μM; for effect of compounds of known insecticidal activity on the pharynx pumping rate: FIGS. 18 to 21
# Protocol: The pumping rate of the pharynx is measured indirectly by adding a marker molecule precursor such as calcein-AM to the medium and measuring the formation of marker dye in the C. elegans gut. Calcein-AM is cleaved by esterases present in the C. elegans gut to release calcein, which is a fluorescent molecule. […] Therefore by measuring the accumulation of calcein in the nematode gut, detectable by fluorescence, it is possible to determine the pumping rate of the pharynx.
# To perform the pharynx pumping screen with calcein-AM, a concentration of between 1 and 100 μM calcein-AM is added into the medium. Preferably 5 to 10 μM calcein-AM is used. Fluorescence is measured using a multi-well plate reader (Victor2, Wallac Oy, Finland) with following settings: Ex/Em=485/530.
# To determine the sensitivity of the pharynx pumping assay, dilution series were made for some chemical substances. These include the chemicals clomipramine, tamoxifen, BP554, pimazide and thapsigargin. A concentration range was made from less than 1 μM up to 100 μM, and the pumping assay was repeated as described in previous examples.
Compound,"movement assay reading, first number column (no head printed) (C. elegans; Table 10 c3)","movement assay reading, second number column (no head printed) (C. elegans; Table 10 c4)",hit call: detectable change in the movement behaviour (C. elegans; Table 10 c7),also measured
Cc1nccc2c1[nH]c1ccccc12 [Harmane HCl],1843115,555251,,
Oc1ccc2c3c1O[C@H]1c4c(c5ccccc5n4Cc4ccccc4)C[C@@]4(O)[C@@H](C2)N(CC2CC2)CC[C@]314 [N-Benzyl naltrindole],14932,31760,HIT,
c1ccc(N2CCN(CCCOc3ccc4c(c3)OCO4)CC2)cc1 [BP554],,,,"effect on pharynx pumping rate, dose-response curve (C. elegans pharynx): inhibitors"
"O=c1[nH]c2cc(Cl)ccc2c(O)c1-c1cccc(Oc2ccccc2)c1 [L-701,324]",14647,32476,HIT,
"N[C@H](C(=O)O)[C@H](CC(=O)O)c1ccc(Cl)cc1 [(2S,3R)-Chloropheg]",21514,48736,HIT,
CC(=O)N1CCN(c2ccc(OCC3COC(Cn4ccnc4)(c4ccc(Cl)cc4Cl)O3)cc2)CC1 (centres unmarked) [Ketoconazole],15803,33531,HIT,
N[C@@H](CP(=O)(O)O)C(=O)O [L-AP3],22073,41858,HIT,
"c1ccc(-c2cnc(-c3ccccc3)o2)cc1 [2,5-diphenyloxazole]",,,,effect on pumping rate of the pharynx (C. elegans pharynx; both in wild-type worms and in constitutive pumping worms): inhibitor of the pumping rate of the pharynx
CP(=O)(O)C1=CCNCC1 [TPMPA],21792,120778,HIT,
CC#CCOC(=O)C1=CCCN(C)C1 [Arecaidine but-2-ynyl ester],20002,37675,HIT,
COc1ccc(CCN(C)CCc2ccc(OC)c(OC)c2)cc1OC [YS-035],21415,42457,HIT,
ClC1=C(Cl)[C@]2(Cl)[C@@H]3[C@@H]4C[C@@H]([C@H]5O[C@@H]45)[C@@H]3[C@@]1(Cl)C2(Cl)Cl [Dieldrin],,,,effect of compounds of known insecticidal activity on the pharynx pumping rate (C. elegans pharynx): reduction in the pharynx pumping rate
CC/C(=C(\c1ccccc1)c1ccc(OCCN(C)C)cc1)c1ccccc1 [Tamoxifen],,,,"effect on pharynx pumping rate, dose-response curve (C. elegans pharynx): inhibitors"
O=C(O)[C@@H]1C[C@@H](C(=O)O)N1 [tADA],16096,32342,HIT,
CCCCCCC(C)(C)c1cc(O)c2c(c1)OC(C)(C)[C@@H]1CC=C(CO)C[C@@H]21 [HU 210],15481,33514,HIT,
N[C@@H](COP(=O)(O)O)C(=O)O [O-Phospho-L-serine],20292,41086,HIT,
C=CC(N)CCC(=O)O (centres unmarked) [Vigabatrin],20828,61410,HIT,
CN(C)CCCN1c2ccccc2CCc2ccc(Cl)cc21 [Clomipramine],,,,"effect on pharynx pumping rate, dose-response curve (C. elegans pharynx): enhancer"
C=C(C)[C@H]1Cc2c(ccc3c2O[C@@H]2COc4cc(OC)c(OC)cc4[C@@H]2C3=O)O1 [Rotenone],,,,effect of compounds of known insecticidal activity on the pharynx pumping rate (C. elegans pharynx): reduction in the pharynx pumping rate
CC(=O)O[C@H](CC(=O)[O-])C[N+](C)(C)C [(n)-Acetylcarnitine],23457,44156,HIT,

Compound,"movement assay reading, first number column (no head printed) (C. elegans; Table 10 c3)","movement assay reading, second number column (no head printed) (C. elegans; Table 10 c4)",hit call: detectable change in the movement behaviour (C. elegans; Table 10 c7),also measured
NC(CCCCCC(=O)O)C(=O)O (racemic) [DL-2-Aminosuberic acid],,,,"hit call: detectable change in the movement behaviour (C. elegans; in vivo): HIT; movement assay reading, first number column (no head printed) (C. elegans; in vivo): 17141; movement assay reading, second number column (no head printed) (C. elegans; in vivo): 33518"
COc1ccc(CNC(=O)/C=C/c2ccc3[nH]cc(CCN(C)C)c3c2)cc1 [GR 46611],15815,33199,HIT,
OCC(O)COc1cccc2ccccc12 (centres unmarked) [Propanolol glycol],17134,34849,,
O=C(O)c1cc2ccccc2[nH]1 [Indole-2-carboxylic acid],19362,43403,HIT,
CCN(CC)CCOc1ccc(Cc2ccccc2)cc1 [DPPE],20365,43629,HIT,
NC(CCCP(=O)(O)O)C(=O)O [D-AP5],19717,41697,HIT,
CC(C)(Oc1ccc(Cl)cc1)C(=O)O [Clofibric acid],22933,40916,HIT,
NC(CCP(=O)(O)O)C(=O)O [L-AP4],19824,39523,HIT,
C[S+](C)[O-] [DMSO],,,,"toxic effect in pharynx pumping dose-response curve (C. elegans pharynx; solvent, at higher concentrations (FIG. 5)): toxic effect"
"O=C(O)[C@@H]1C[C@H](C(=O)O)N1 [cis-Azetidine-2,4-dicarboxylic acid]",19503,40568,HIT,
N[C@@H](CCCP(=O)(O)O)C(=O)O [L-AP5],21446,42393,HIT,
NCC(O)COc1cccc2ccccc12 (centres unmarked) [N-desisopropyl propanolol],23737,43102,HIT,
7-(Dimethylcarbamoyloxy)-6-phenylpyrrolo,14278,32900,HIT,
CN(C)CCCn1cc(C2=C(c3c[nH]c4ccccc34)C(=O)NC2=O)c2ccccc21 [GF 109203X],15685,34448,HIT,
CC(=O)N[C@@H](CC(=O)N[C@@H](CCC(=O)O)C(=O)O)C(=O)O [Spaglumic acid],20295,38417,HIT,
COc1cc2nc(N3CCN(C(=O)c4ccco4)CC3)nc(N)c2cc1OC [Prazosin],94689,113608,HIT,
NC1(C(=O)O)CCCC1 [Cycloleucine],19234,36560,HIT,
S(-)-Atenolol,18176,36336,HIT,
CC(N)(COP(=O)(O)Oc1ccccc1)C(=O)O (centres unmarked) [MSOPPE],23760,44614,HIT,
CC(C)(Cc1c[nH]c2ccc(Cl)cc12)NCCOc1ccccc1OCC1CC1 [RS 17053],14439,32050,HIT,
